Measurements reported in ChEMBL document CHEMBL1144583, “Specificities of acetoxy derivatives of coumarins, biscoumarins, chromones, flavones, isoflavones and xanthones for acetoxy drug: protein transacetylase” (2007).

Tests used:
[1] = species on record: Rattus norvegicus; assay: Effect on TAase activity assessed as inhibition of GST in liver microsome at 50 uM; assay type: microsomes
[2] = species on record: Rattus norvegicus; assay: Effect on TAase activity assessed as activation of liver microsomal NADPH cytochrome P450 at 5 uM
[3] = species on record: Rattus norvegicus; assay: Inhibition of liver microsomal EROD at 25 uM
[4] = tested on: Bone marrow cell; assay: Inhibition of micronuclei formation in benzene-induced in Wistar Albino rat bone marrow cells at 300 mg/ kg, ip after 1 hr; assay type: functional; settings: route intraperitoneal

SMILES	inhibition [1] [%]	Activity [2] [%]	inhibition [3] [%]	inhibition in vivo at 300 mg/kg [4] [%]
CC(=O)Oc1ccc2c(C(C/C=C/C#CC(C)(C)C)S(=O)(=O)c3ccccc3)cc(=O)oc2c1 (stereo unspecified)	4.01	7.6		
CC(=O)Oc1ccc2c(=O)c(C(C)=O)c(C)oc2c1OC(C)=O	15.3	27.6		
CC(=O)Oc1cc(OC(C)=O)c2c(=O)c(C(C)=O)c(C)oc2c1	6.68	16.7		
CC(=O)Oc1ccc2c(c1)OC(=O)CC2c1ccccc1 (stereo unspecified)	3.31	6.77		
CC(=O)Oc1ccc2c(C)cc(=O)oc2c1OC(C)=O	15.2	25.8	58.4	65
CC(=O)Oc1ccc2c(OC(C)=O)c(Cc3c(OC(C)=O)c4ccc(OC(C)=O)c(OC(C)=O)c4oc3=O)c(=O)oc2c1OC(C)=O	10.1	17.2	39.3	37.9
CCCCCCC(c1cc(=O)oc2cc(OC(C)=O)ccc12)S(=O)(=O)c1ccccc1 (stereo unspecified)	3.96	7.17		
CC(=O)Oc1ccc2c(=O)c(C(C)=O)c(C)oc2c1	6.03	15.1	31.5	
CC(=O)Oc1ccc2c(=O)c(-c3ccccc3)c(C)oc2c1	3.1	7.1	16.1	
CC(=O)Oc1ccc2c(C(C/C=C/C#CC(C)(C)C)S(=O)(=O)c3ccccc3)cc(=O)oc2c1OC(C)=O (stereo unspecified)	10.4	15.9		
CC(=O)Oc1cc2c(=O)oc3c(OC(C)=O)c(OC(C)=O)cc4c(=O)oc(c1OC(C)=O)c2c34 [ELLAGIC ACID TETRAACETATE]	10.1	16.1		39.6
CC(=O)Oc1cc(C(C)=O)c2c(C)cc(=O)oc2c1	7.65	15.6		
CC(=O)Oc1cccc2oc3ccccc3c(=O)c12	3.43	5.06		
CC(=O)Oc1ccc(OC(C)=O)c2c(=O)c3ccccc3oc12	12.7	21.7	41.9	
CC(=O)Oc1ccc2c(=O)cc(-c3ccccc3)oc2c1	3.6	6.9	16.4	
CC(=O)Oc1ccc2c(=O)c(-c3ccccc3)coc2c1OC(C)=O	6.89	14.5	32.4	
CC(=O)Oc1ccc2c(C)cc(=O)oc2c1	7.1	14.5	30.8	44.6
